For data set [1], the system named is Neisseria gonorrhoeae, GC525 (NG-2888). In words: in-vitro antibacterial activity, microbroth dilution MIC susceptibility testing. The format is cell-based. The conditions noted are these: Neisseria gonorrhoeae, microbroth dilution in gonococcal broth, 20-24 hours at 35 C, lowest concentration preventing visible growth, read-out: MIC. The method in brief: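 Broth microdilution in gonococcal broth, inoculum ~5×10^5 cfu/mL, 20-24 h at 35 C in humidified CO2; compounds from 2 mg/mL DMSO stocks over 64-0.06 and 1-0.001 ug/mL two-fold series. MIC is the lowest concentration preventing visible growth, read visually; duplicates differing one well give the lower value, two wells the middle value.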
For orientation: Broth dilution looks for growth in wells or tubes with falling amounts of substance.

Usually MIC stands for the lowest concentration that inhibits growth of the organism. A word on the melting point: it is the temperature, or range, at which the solid turns liquid.

Converted amounts (≈) assume the structure as drawn.

For `CCNC(=O)Nc1nc2cc(-c3cccnc3)cc(OCCN3CCCC3)n2n1` [Example 143, N-Ethyl-N′-[7-pyridin-3-yl-5-(2-pyrrolidin-1-ylethoxy)[1,2,4]triazolo[1,5-a]pyridin-2-yl]urea], the melting point is 189 to 192 °C (dec.). The MIC in data set [1] stood at 32 µg/mL (≈ 80.9 µM).

The record behind these values is patent publication US7524860B2, “Antibacterial agents” (Pfizer Inc., priority 2004, dated 2009).
